Measured values taken from US11458132B2, “Quinolin-2(1H)-one inhibitors of Late SV40 Factor” (TRUSTEES OF BOSTON UNIVERSITY, priority 2020, dated 2022).

Assays:
RPE cells = assay: Cell cycle analysis by flow cytometry at end of wound healing; type: cell-based; conditions: 4 μM FQI1, 12-hour time-point
Method: Cell cycle analysis by flow cytometry: After trypsinization, subsequent steps prior to staining were performed at 4° C. Cells in PBS were transferred dropwise into ethanol (final concentration of 70%) for overnight incubation. Fixed cells were washed with PBS and then incubated in 50 μg/ml propidium iodide and 10 μg/ml RNase A in PBS for 45 minutes at room temperature. After passage through a cell strainer, cell fluorescence was measured using a Becton Dickinson FACSCalibur. Ten thousand events were counted per sample. Histogram plots were generated using FlowJo.
All the samples, including a “0 hour” synchronized and an asynchronous sample, were harvested and prepared for flow cytometry, as described above. The proportion of cells in their respective cell cycle phases was determined by applying the Dean-Jett-Fox model in the FlowJo Cell Cycle analysis tool.

LSF = target: T1, LSF (Homo sapiens, UniProt Q12800); assay: Cellular thermal shift assay (CETSA) in Huh7 cells; type: binding; conditions: 50 μM, three hours, vs DMSO
T1 construct: Representative immunoblots of soluble LSF after treatment with FQI2-34 versus DMSO; endogenous in cells; host or cells: Huh7
T1 sequence (Q12800 1-502): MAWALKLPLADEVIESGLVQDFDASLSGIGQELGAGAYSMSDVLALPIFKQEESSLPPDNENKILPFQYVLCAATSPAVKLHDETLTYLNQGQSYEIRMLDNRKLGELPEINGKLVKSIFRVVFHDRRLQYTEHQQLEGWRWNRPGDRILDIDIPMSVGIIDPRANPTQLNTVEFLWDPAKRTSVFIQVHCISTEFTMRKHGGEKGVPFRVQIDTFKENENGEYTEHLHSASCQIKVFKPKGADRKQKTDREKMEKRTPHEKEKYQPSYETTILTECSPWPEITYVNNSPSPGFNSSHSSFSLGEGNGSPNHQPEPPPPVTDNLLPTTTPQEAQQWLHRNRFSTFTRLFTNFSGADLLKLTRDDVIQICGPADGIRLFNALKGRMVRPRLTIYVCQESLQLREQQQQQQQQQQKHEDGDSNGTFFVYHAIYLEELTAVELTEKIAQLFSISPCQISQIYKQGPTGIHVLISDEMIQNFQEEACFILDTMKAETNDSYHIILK
Method: Cellular Thermal Shift Assay (CETSA): Huh7 cells obtained from JCRB (Japanese Cancer Resources Bank) were cultured in DMEM medium (Corning) supplemented with 10% fetal bovine serum (Gibco). The cells were cultured at 37° C. in 5% CO2. Approximately 9×10^5 Huh7 cells were plated per 10 cm plate. After 20 hours, cells were treated for three hours with fresh media containing 50 μM FQI1, 50 μM FQI2-34, or 0.1% DMSO (FQI1 control) or 0.5% DMSO (FQI2-34 control). Subsequently, the cells were washed with PBS (137 mM NaCl, 2.7 mM KCl, 10 mM Na2HPO4, 2 mM KH2PO4, pH 7.2) supplemented with their respective treatments (FQI1, FQI2-34, or vehicle) and scraped from the dish in the presence of 5 mL of PBS supplemented with 1 mM Pefabloc (Sigma-Aldrich, 76307) plus the respective treatment. Pelleted cells were resuspended in 500 μL of PBS buffer with 1 mM Pefabloc plus the respective treatment. Aliquots of 50 μL of cell suspension from each treatment sample were incubated separately at the indicated temperatures for 3 minutes in a thermal cycler (Bio-rad, T100 Thermocyler), then cooled at the room temperature for 3 minutes. Lysates were prepared by four rounds of snap freezing and thawing. […] Films were scanned and band intensities were quantified by densitometry with Image J; a non-parametric t-test was used to determine statistical significance.

SMILES | cells with a 4n DNA content (RPE cells) [%] | stability of LSF to thermal denaturation (LSF)
CCOc1ccccc1C1CC(=O)Nc2cc3c(cc21)OCO3 (stereo not drawn) [FQI1, 8-(2-ethoxyphenyl)-7,8-dihydro-[1,3]dioxolo[4,5-g]quinolin-6(5H)-one] | ~30 | enhanced the stability of LSF to thermal denaturation
CCOc1cc(N(C)C)ccc1-c1cc(=O)[nH]c2cc3c(cc12)OCO3 [FQI2-34, 8-(4-(dimethylamino)-2-ethoxyphenyl)-[1,3]dioxolo[4,5-g]quinolin-6(5H)-one] | – | enhanced the stability of LSF to thermal denaturation
